The OligoGym collection
These antisense oligonucleotides have a phosphorothioate backbone; sugars and methylation of C are not fully specified.

target: MAP2K7; settings: ASO
Also: test concentration or dose not given here.

First: ACTGTCCTGTTGCCAGCTCC
Second: AGACAAACACCTCGTGCCGA
The remaining target (mRNA or protein) (fraction of control) of the first is lower: 0.58 for the first, 0.88 for the second.

Going from AGAGCTTGATCTGGCCCCGC to AGGACGCCGCCATCTTCCCC, the remaining target (mRNA or protein) (fraction of control) falls from 0.84 to 0.7.

Compared with AGGCGGCACAGCCGGCGCTC, AGTCCGCGGTGACTCAGGTC is lower in remaining target (mRNA or protein) (fraction of control): 0.95 for the first, 0.87 for the second.

Compared with ATGGCGATGAAGACGTCCGT, CACCTCCAGCGTCTCGTAGC is lower in remaining target (mRNA or protein) (fraction of control): 0.84 for the first, 0.45 for the second.

First: CAGGGAGGACGCCGCCATCT
Second: CATCTTCCCCGCCGCCACCG
The remaining target (mRNA or protein) (fraction of control) of the first is higher: at least 1 for the first, 0.68 for the second.

Compared with CCCAGGCTCCATACGTCGGC, CCCCGAGAAGCCCATGTGTC is lower in remaining target (mRNA or protein) (fraction of control): 0.74 for the first, 0.69 for the second.

Going from CCGCCATCTTCCCCGCCGCC to CGCCGCCATCTTCCCCGCCG, the remaining target (mRNA or protein) (fraction of control) rises from 0.9 to 0.99.

Going from CGCGCACCGCCCGGCCGCCC to CGTCAGTCCGGCAGACAAAC, the remaining target (mRNA or protein) (fraction of control) rises from 0.46 to 0.91.

CTGAGGATGGCGAGCGGCTG and CTGGCTCAAGGAACGCCGTT cannot be ordered by remaining target (mRNA or protein) (fraction of control): at least 1 for the first, at least 1 for the second.

CTTTAGTAAGGCAGTCTTTG and GACGCCGCCATCTTCCCCGC are the same in remaining target (mRNA or protein) (fraction of control): 0.7 for the first, 0.7 for the second.

Going from GAGTCCACCAGGCGGCCGCT to GCACCACATCCAGGTCCATG, the remaining target (mRNA or protein) (fraction of control) falls from 0.66 to 0.58.

First: GCCATCTTCCCCGCCGCCAC
Second: GCCGTTAGTCCGCGGTGACT
The remaining target (mRNA or protein) (fraction of control) of the first is higher: 0.75 for the first, 0.72 for the second.

First: GCGGGACAGCTTCTGTTCCA
Second: GGAGCGCCGCATTTGCTTAA
The remaining target (mRNA or protein) (fraction of control) of the first is higher: at least 1 for the first, 0.75 for the second.

Going from GGAGGGCTTGACGTCGCGGT to GGGAGGACGCCGCCATCTTC, the remaining target (mRNA or protein) (fraction of control) falls from 0.96 to 0.34.

Going from GGTAGTACAGCGCCTTCACA to GGTTGGCCGCCGGCCAAAGC, the remaining target (mRNA or protein) (fraction of control) rises from 0.82 to at least 1.

Compared with TAGCCCGTCTGCTTCATGAT, TCATAGTCCGGCTTGGTGGG is higher in remaining target (mRNA or protein) (fraction of control): 0.76 for the first, at least 1 for the second.

First: TCCAGGGAGGACGCCGCCAT
Second: TCCAGGTTGAGGTCGATCCT
The remaining target (mRNA or protein) (fraction of control) of the first is lower: 0.64 for the first, 0.68 for the second.

Compared with TCTTCCCCGCCGCCACCGCC, TGAACGTCCCAAAGCACTGC is higher in remaining target (mRNA or protein) (fraction of control): 0.77 for the first, 0.86 for the second.

Going from TGTCATCTTGCCCAGAATGC to TTCCGGAAGCGCATCTTCCA, the remaining target (mRNA or protein) (fraction of control) rises from 0.68 to 0.86.

TTCTCCTGCTTCAGCTTTGC gave a remaining target (mRNA or protein) (fraction of control) of 0.69.

target: RELA; settings: ASO

First: AAAGGAGCCTCGGGCCTC
Second: ACCTGGAAGCAGAGCCGC
The remaining target (mRNA or protein) (fraction of control) of the first is higher: 0.37 for the first, 0.31 for the second.

Going from AGAGCCGCACAGCATTCA to AGCCTGGTCCCGTGAAAT, the remaining target (mRNA or protein) (fraction of control) rises from 0.46 to 0.5.

Compared with AGCTGAGCTGCGGGAAGG, AGGTATGCCCTGGTTCAG is lower in remaining target (mRNA or protein) (fraction of control): 0.86 for the first, 0.61 for the second.

Going from ATGAGGAAGGACAGGCGG to ATGCGTCGAGGTGGAGGC, the remaining target (mRNA or protein) (fraction of control) falls from at least 1 to 0.6.

Going from ATGGAGGAGAAGTCTTCA to ATGGGTCCCGCACTGTCA, the remaining target (mRNA or protein) (fraction of control) falls from at least 1 to 0.38.

First: CAAAGATGGGATGAGGAA
Second: CAATGTCCTCTTTCTGCA
The remaining target (mRNA or protein) (fraction of control) of the first is higher: at least 1 for the first, 0.78 for the second.

Going from CAGGTCCCGCTTCTTCAC to CCTGGTCCTGTGTAGCCA, the remaining target (mRNA or protein) (fraction of control) rises from 0.33 to 0.78.

Compared with CGTAGTCCCCACGCTGCT, CTCAATGATCTCCACATA is higher in remaining target (mRNA or protein) (fraction of control): 0.29 for the first, at least 1 for the second.

Compared with CTCATAGAAGCCATCCCG, CTGCCGGGAAGATGAGGG is higher in remaining target (mRNA or protein) (fraction of control): 0.69 for the first, 0.84 for the second.

target: CTNNB1; settings: ASO

Compared with AAACTGTGTAGATGGGATCT, AATCAGCTTGAGTAGCCATT is lower in remaining target (mRNA or protein) (fraction of control): 0.57 for the first, 0.31 for the second.

First: ACCAAGCATTTTCACCAGGG
Second: ACCAGGGTGGTGGCCACCCA
The remaining target (mRNA or protein) (fraction of control) of the first is lower: 0.4 for the first, 0.48 for the second.

Compared with AGAAAATCCCTGTTCCCACT, AGCAGACACCATCTGAGGAG is lower in remaining target (mRNA or protein) (fraction of control): 0.32 for the first, 0.3 for the second.

Going from AGCCCACCAGCTAAACGCAC to AGCTTGAGTAGCCATTGTCC, the remaining target (mRNA or protein) (fraction of control) falls from 0.4 to 0.34.

First: AGGCTAGGGTTTGCTAAATT
Second: AGGTCCCAGCGGTACAACGA
The remaining target (mRNA or protein) (fraction of control) of the first is higher: 0.47 for the first, 0.21 for the second.

First: AGGTGCATGATTTGCGGGAC
Second: AGTAGCCATTGTCCACGCTG
The remaining target (mRNA or protein) (fraction of control) of the first is higher: 0.62 for the first, 0.37 for the second.

First: CAAAACAAGGTTCCAAATAA
Second: CAAATCAGCTTGAGTAGCCA
The remaining target (mRNA or protein) (fraction of control) of the first is higher: 0.56 for the first, 0.49 for the second.

Going from CATTGTCCACGCTGGATTTT to CCCATAGGAAACTCAGCTTG, the remaining target (mRNA or protein) (fraction of control) falls from 0.72 to 0.29.

First: CCCCTCGCTCTCCGCTCCCG
Second: CCTCTCAGCAACTCTACAGG
The remaining target (mRNA or protein) (fraction of control) of the first is lower: 0.07 for the first, 0.24 for the second.

Going from CCTCTGATAACAATTCGGTT to CGACCTGCGGTGGCGGCTCG, the remaining target (mRNA or protein) (fraction of control) falls from 0.52 to 0.36.

First: CTAAAGGATGATTTACAGGT
Second: CTGGTCAGCTCAACTGAAAG
The remaining target (mRNA or protein) (fraction of control) of the first is higher: 0.54 for the first, 0.41 for the second.

Compared with CTGTCAGAGGAGCTGTGGCT, CTTGAGTAGCCATTGTCCAC is higher in remaining target (mRNA or protein) (fraction of control): 0.64 for the first, at least 1 for the second.

Going from GCACGAACAAGCAACTGAAC to GCCATTGTCCACGCTGGATT, the remaining target (mRNA or protein) (fraction of control) rises from 0.37 to at least 1.

Going from GTACGCACAAGAGCCTCTAT to GTCCTGAGCAAGTTCACAGA, the remaining target (mRNA or protein) (fraction of control) rises from 0.29 to 0.37.

First: GTTGTATGGTATACTTCAAA
Second: TAGAGTGATTATGAATTAAT
The remaining target (mRNA or protein) (fraction of control) of the first is lower: 0.69 for the first, 0.7 for the second.

Compared with TAGCAGTTTTGTCAGTTCAG, TAGCCATTGTCCACGCTGGA is lower in remaining target (mRNA or protein) (fraction of control): at least 1 for the first, 0.23 for the second.

Compared with TCAGCTTGAGTAGCCATTGT, TCGCCACACCTTCATTCCTA is higher in remaining target (mRNA or protein) (fraction of control): 0.31 for the first, 0.37 for the second.

Compared with TGAGTAGCCATTGTCCACGC, TGTTTTCAATGGGAGAATAA is higher in remaining target (mRNA or protein) (fraction of control): 0.35 for the first, 0.63 for the second.

Compared with TTATTGCAAGTGAGGTTAGA, TTCTCTTGAAGCATCGTATC is lower in remaining target (mRNA or protein) (fraction of control): 0.51 for the first, 0.2 for the second.

First: TTGCTGCCAGTGACTAACAG
Second: TTGTCCACGCTGGATTTTCA
The remaining target (mRNA or protein) (fraction of control) of the first is lower: 0.46 for the first, 0.52 for the second.

target: GNAI3; settings: ASO

First: AAATGTGTTTCTACAATG
Second: AAGGTGTCTGGTCTCAAC
The remaining target (mRNA or protein) (fraction of control) of the first is higher: 0.9 for the first, 0.56 for the second.

Compared with AAGTTCCCTAATACAAAA, AATGATTGAAGTTTCTGT is lower in remaining target (mRNA or protein) (fraction of control): 0.85 for the first, 0.73 for the second.

Going from AATGTAGTTAGACTGGGA to AATTCCAATGTCTGACTT, the remaining target (mRNA or protein) (fraction of control) rises from 0.46 to 0.51.

Compared with ACAATGCCTGTGGTCTTC, ACACTGTAGTAACTTTCA is lower in remaining target (mRNA or protein) (fraction of control): at least 1 for the first, 0.6 for the second.

Going from ACTCCACACTGTAGTAAC to AGAGAATGATTGAAGTTT, the remaining target (mRNA or protein) (fraction of control) rises from 0.45 to 0.99.

Compared with AGCCAGAACAAGGTCATA, AGGTCATAATCACTGAGG is lower in remaining target (mRNA or protein) (fraction of control): 0.88 for the first, 0.75 for the second.

Going from ATCTCCTTGGTATCTTTT to ATCTTGCTTCGCTCCACT, the remaining target (mRNA or protein) (fraction of control) rises from 0.33 to 0.63.

First: ATGCAGCACCTCAACTTC
Second: ATTGTTTACATTCATCCT
The remaining target (mRNA or protein) (fraction of control) of the first is lower: 0.4 for the first, at least 1 for the second.

Going from CAATAAAGTCCACATTCC to CAATCTTTAGCCGTCCCA, the remaining target (mRNA or protein) (fraction of control) falls from at least 1 to 0.49.

Going from CATCTTGCTGAGTTGGAA to CATGAGACAGCAAAAGGT, the remaining target (mRNA or protein) (fraction of control) rises from 0.34 to 0.92.

First: CCACCATCTCGCCATAAC
Second: CCATGCTTCTCAATAAAG
The remaining target (mRNA or protein) (fraction of control) of the first is higher: 0.77 for the first, 0.58 for the second.

Compared with CTCAACACTCCACACTGT, CTTCTCAATAAAGTCCAC is lower in remaining target (mRNA or protein) (fraction of control): 0.9 for the first, 0.65 for the second.

First: GACTCCTTCTTCAGCACT
Second: GAGTTGGAATGTAGTTAG
The remaining target (mRNA or protein) (fraction of control) of the first is lower: 0.48 for the first, 0.56 for the second.

Compared with GGTATCTTTTCTTCTGTT, GTCTGACTTTAGCATCTC is higher in remaining target (mRNA or protein) (fraction of control): 0.48 for the first, 0.56 for the second.

Compared with GTGTTTCTACAATGCCTG, TAAAGAGTGCTAAGATTC is higher in remaining target (mRNA or protein) (fraction of control): 0.37 for the first, 0.72 for the second.

First: TAAAGTTATTCTTCTCTT
Second: TAACGGACTCCTCTTTAT
The remaining target (mRNA or protein) (fraction of control) of the first is higher: 0.88 for the first, 0.25 for the second.

Compared with TAATTGCTGTCACTCCCT, TATTGGAACCTGTGTATT is lower in remaining target (mRNA or protein) (fraction of control): 0.65 for the first, 0.54 for the second.

First: TCAACTTCACATCTTCCA
Second: TCACTCTCGTCCGAAGAA
The remaining target (mRNA or protein) (fraction of control) of the first is higher: 0.62 for the first, 0.41 for the second.

Going from TGGCACAGGTGAAGTGAG to TGGTCTTCACTCTCGTCC, the remaining target (mRNA or protein) (fraction of control) falls from 0.29 to 0.21.

TTAAGAAATCCAAGTGAT and TTAAGGAAGAGAATGATT cannot be ordered by remaining target (mRNA or protein) (fraction of control): at least 1 for the first, at least 1 for the second.
